Our source for the fold change (FC) values is ChEMBL document CHEMBL2429758, “3-aroylmethylene-2,3,6,7-tetrahydro-1H-pyrazino[2,1-a]isoquinolin-4(11bH)-ones as potent Nrf2/ARE inducers in human cancer cells and AOM-DSS treated mice” (J Med Chem, 2013).

The target in the first test is T1, Nuclear factor erythroid 2-related factor 2 (Homo sapiens) (UniProt Q16236).
T1 sequence (whole entry): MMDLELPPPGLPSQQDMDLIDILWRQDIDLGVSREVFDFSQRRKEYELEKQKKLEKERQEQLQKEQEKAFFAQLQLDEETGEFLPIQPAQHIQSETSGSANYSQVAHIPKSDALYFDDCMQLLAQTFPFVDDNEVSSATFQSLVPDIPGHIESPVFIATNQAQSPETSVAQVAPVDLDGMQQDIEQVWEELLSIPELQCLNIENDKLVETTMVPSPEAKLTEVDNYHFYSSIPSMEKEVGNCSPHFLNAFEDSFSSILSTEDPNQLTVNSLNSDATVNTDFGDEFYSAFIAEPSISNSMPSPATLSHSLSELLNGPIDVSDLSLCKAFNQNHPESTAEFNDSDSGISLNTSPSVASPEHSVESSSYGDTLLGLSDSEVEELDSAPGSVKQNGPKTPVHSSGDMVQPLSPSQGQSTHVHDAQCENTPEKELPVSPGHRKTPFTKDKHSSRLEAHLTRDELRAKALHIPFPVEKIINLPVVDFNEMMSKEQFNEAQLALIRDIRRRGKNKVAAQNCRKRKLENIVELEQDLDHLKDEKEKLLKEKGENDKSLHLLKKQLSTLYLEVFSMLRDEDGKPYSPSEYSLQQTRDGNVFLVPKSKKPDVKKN
Nature of the test: Induction of Nrf2-mediated ARE activity in human HepG2-ARE-C8 cells at 10 uM after 12 hrs by luciferase reporter gene assay relative to control. The class given is cell-based. (In a reporter assay the amount or activity of a reporter protein is the signal.)
Consider `O=C(/C=C1\NCC2c3ccccc3CCN2C1=O)c1cccc(C(F)(F)F)c1` (stereo not given), for which the fold change (FC) turned out to be 3.25.

With `O=C(/C=C1\NCC2c3ccccc3CCN2C1=O)c1cc(F)cc(F)c1` (stereo not given), the fold change (FC) was 7.62.

`O=C(/C=C1\NCC2c3ccccc3CCN2C1=O)c1ccc([N+](=O)[O-])cc1` (stereo not given): the fold change (FC) came to 3.81.

With `COc1ccc2c(c1)C1CN/C(=C\C(=O)c3cccc(Cl)c3)C(=O)N1CC2` (stereo not given), the fold change (FC) came to 7.28.

For `COc1ccc2c(c1)CCN1C(=O)/C(=C/C(=O)c3cccc(F)c3)NCC21` (stereo not given), the fold change (FC) is 6.66.

For `COc1cc2c(cc1OC)C1CN/C(=C\C(=O)c3ccccc3)C(=O)N1CC2` (stereo not given), the fold change (FC) was 1.67.

As to `O=C(/C=C1\NCC2c3ccccc3CCN2C1=O)c1ccc(Cl)cc1` (stereo not given), the fold change (FC) was 4.

As for `O=C(/C=C1\NCC2c3ccccc3CCN2C1=O)c1ccc(-c2ccccc2)cc1` (stereo not given), the fold change (FC) came out at 2.09.

`O=C(/C=C1\NCC2c3ccccc3CCN2C1=O)c1cccc([N+](=O)[O-])c1` (stereo not given): the fold change (FC) came to 18.5.

On to `Cc1ccc(C(=O)/C=C2\NCC3c4ccccc4CCN3C2=O)cc1` (stereo not given), for which the fold change (FC) was 5.22.

With `COc1ccc2c(c1)CCN1C(=O)/C(=C/C(=O)c3ccccc3)NCC21` (stereo not given), the fold change (FC) was 5.36.

In the case of `COc1cccc2c1CCN1C(=O)/C(=C/C(=O)c3ccccc3)NCC21` (stereo not given), the fold change (FC) was 6.93.

Another test deals with T1, Nuclear factor erythroid 2-related factor 2 (Homo sapiens). Nature of the test: Induction of Nrf2-mediated ARE activity in human HepG2-ARE-C8 cells at 0.01 uM after 12 hrs by luciferase reporter gene assay relative to control. Format: cell-based.
For the molecule `O=C(/C=C1\NCC2c3ccccc3CCN2C1=O)c1cccc(C(F)(F)F)c1` (stereo not given), the fold change (FC) came to 2.22.

With `O=C(/C=C1\NCC2c3ccccc3CCN2C1=O)c1cc(F)cc(F)c1` (stereo not given), the fold change (FC) was found to be 1.34.

For `O=C(/C=C1\NCC2c3ccccc3CCN2C1=O)c1ccc([N+](=O)[O-])cc1` (stereo not given), the fold change (FC) was 1.2.

As to `COc1ccc2c(c1)C1CN/C(=C\C(=O)c3cccc(Cl)c3)C(=O)N1CC2` (stereo not given), the fold change (FC) was 2.26.

In the case of `COc1ccc2c(c1)CCN1C(=O)/C(=C/C(=O)c3cccc(F)c3)NCC21` (stereo not given), the fold change (FC) was 1.83.

In the case of `COc1cc2c(cc1OC)C1CN/C(=C\C(=O)c3ccccc3)C(=O)N1CC2` (stereo not given), the fold change (FC) came out at 0.86.

Consider `O=C(/C=C1\NCC2c3ccccc3CCN2C1=O)c1ccc(Cl)cc1` (stereo not given), for which the fold change (FC) amounted to 1.3.

Take `O=C(/C=C1\NCC2c3ccccc3CCN2C1=O)c1ccc(-c2ccccc2)cc1` (stereo not given): the fold change (FC) was 1.62.

As to `O=C(/C=C1\NCC2c3ccccc3CCN2C1=O)c1cccc([N+](=O)[O-])c1` (stereo not given), the fold change (FC) is 3.28.

`Cc1ccc(C(=O)/C=C2\NCC3c4ccccc4CCN3C2=O)cc1` (stereo not given): the fold change (FC) came to 2.01.

Consider `COc1ccc2c(c1)CCN1C(=O)/C(=C/C(=O)c3ccccc3)NCC21` (stereo not given), for which the fold change (FC) worked out at 0.65.

On to `COc1cccc2c1CCN1C(=O)/C(=C/C(=O)c3ccccc3)NCC21` (stereo not given), for which the fold change (FC) was 1.

Another test has the same target. In words: Induction of Nrf2-mediated ARE activity in human HepG2-ARE-C8 cells at 1 uM after 12 hrs by luciferase reporter gene assay relative to control. Format: cell-based.
Regarding `O=C(/C=C1\NCC2c3ccccc3CCN2C1=O)c1cccc(C(F)(F)F)c1` (stereo not given), the fold change (FC) was determined as 1.76.

As to `O=C(/C=C1\NCC2c3ccccc3CCN2C1=O)c1cc(F)cc(F)c1` (stereo not given), the fold change (FC) stood at 4.75.

Turning to `O=C(/C=C1\NCC2c3ccccc3CCN2C1=O)c1ccc([N+](=O)[O-])cc1` (stereo not given), the fold change (FC) came to 1.76.

Take `COc1ccc2c(c1)C1CN/C(=C\C(=O)c3cccc(Cl)c3)C(=O)N1CC2` (stereo not given): the fold change (FC) was 4.53.

For `COc1ccc2c(c1)CCN1C(=O)/C(=C/C(=O)c3cccc(F)c3)NCC21` (stereo not given), the fold change (FC) was determined as 3.96.

As to `COc1cc2c(cc1OC)C1CN/C(=C\C(=O)c3ccccc3)C(=O)N1CC2` (stereo not given), the fold change (FC) came to 1.35.

`O=C(/C=C1\NCC2c3ccccc3CCN2C1=O)c1ccc(Cl)cc1` (stereo not given): the fold change (FC) came to 2.61.

With `O=C(/C=C1\NCC2c3ccccc3CCN2C1=O)c1ccc(-c2ccccc2)cc1` (stereo not given), the fold change (FC) was 1.41.

Consider `O=C(/C=C1\NCC2c3ccccc3CCN2C1=O)c1cccc([N+](=O)[O-])c1` (stereo not given), for which the fold change (FC) was 7.22.

For the molecule `Cc1ccc(C(=O)/C=C2\NCC3c4ccccc4CCN3C2=O)cc1` (stereo not given), the fold change (FC) is 3.25.

Turning to `COc1ccc2c(c1)CCN1C(=O)/C(=C/C(=O)c3ccccc3)NCC21` (stereo not given), the fold change (FC) is 3.8.

Take `COc1cccc2c1CCN1C(=O)/C(=C/C(=O)c3ccccc3)NCC21` (stereo not given): the fold change (FC) stood at 3.57.

For the next test the target is unchanged. Nature of the test: Induction of Nrf2-mediated ARE activity in human HepG2-ARE-C8 cells at 5 uM after 12 hrs by luciferase reporter gene assay relative to control. Format: cell-based.
In the case of `O=C(/C=C1\NCC2c3ccccc3CCN2C1=O)c1cccc(C(F)(F)F)c1` (stereo not given), the fold change (FC) turned out to be 3.14.

`O=C(/C=C1\NCC2c3ccccc3CCN2C1=O)c1cc(F)cc(F)c1` (stereo not given): the fold change (FC) amounted to 5.22.

`O=C(/C=C1\NCC2c3ccccc3CCN2C1=O)c1ccc([N+](=O)[O-])cc1` (stereo not given): the fold change (FC) was 2.43.

Regarding `COc1ccc2c(c1)C1CN/C(=C\C(=O)c3cccc(Cl)c3)C(=O)N1CC2` (stereo not given), the fold change (FC) was found to be 6.49.

As for `COc1ccc2c(c1)CCN1C(=O)/C(=C/C(=O)c3cccc(F)c3)NCC21` (stereo not given), the fold change (FC) came out at 5.65.

For `COc1cc2c(cc1OC)C1CN/C(=C\C(=O)c3ccccc3)C(=O)N1CC2` (stereo not given), the fold change (FC) was determined as 1.46.

In the case of `O=C(/C=C1\NCC2c3ccccc3CCN2C1=O)c1ccc(Cl)cc1` (stereo not given), the fold change (FC) is 3.57.

For the molecule `O=C(/C=C1\NCC2c3ccccc3CCN2C1=O)c1ccc(-c2ccccc2)cc1` (stereo not given), the fold change (FC) is 1.69.

As for `O=C(/C=C1\NCC2c3ccccc3CCN2C1=O)c1cccc([N+](=O)[O-])c1` (stereo not given), the fold change (FC) was determined as 14.5.

Turning to `Cc1ccc(C(=O)/C=C2\NCC3c4ccccc4CCN3C2=O)cc1` (stereo not given), the fold change (FC) worked out at 4.42.

For the molecule `COc1ccc2c(c1)CCN1C(=O)/C(=C/C(=O)c3ccccc3)NCC21` (stereo not given), the fold change (FC) was 8.18.

For the molecule `COc1cccc2c1CCN1C(=O)/C(=C/C(=O)c3ccccc3)NCC21` (stereo not given), the fold change (FC) came out at 6.89.

The target is the same in a further test. In words: Induction of Nrf2-mediated ARE activity in human HepG2-ARE-C8 cells at 0.1 uM after 12 hrs by luciferase reporter gene assay relative to control. The class given is cell-based.
For the molecule `O=C(/C=C1\NCC2c3ccccc3CCN2C1=O)c1cccc(C(F)(F)F)c1` (stereo not given), the fold change (FC) came to 1.7.

For the molecule `O=C(/C=C1\NCC2c3ccccc3CCN2C1=O)c1cc(F)cc(F)c1` (stereo not given), the fold change (FC) was found to be 2.92.

Consider `O=C(/C=C1\NCC2c3ccccc3CCN2C1=O)c1ccc([N+](=O)[O-])cc1` (stereo not given), for which the fold change (FC) is 2.34.

Take `COc1ccc2c(c1)C1CN/C(=C\C(=O)c3cccc(Cl)c3)C(=O)N1CC2` (stereo not given): the fold change (FC) turned out to be 2.28.

Turning to `COc1ccc2c(c1)CCN1C(=O)/C(=C/C(=O)c3cccc(F)c3)NCC21` (stereo not given), the fold change (FC) was 5.19.

Regarding `COc1cc2c(cc1OC)C1CN/C(=C\C(=O)c3ccccc3)C(=O)N1CC2` (stereo not given), the fold change (FC) worked out at 0.85.

With `O=C(/C=C1\NCC2c3ccccc3CCN2C1=O)c1ccc(Cl)cc1` (stereo not given), the fold change (FC) was determined as 2.33.

Regarding `O=C(/C=C1\NCC2c3ccccc3CCN2C1=O)c1ccc(-c2ccccc2)cc1` (stereo not given), the fold change (FC) stood at 1.67.

As to `O=C(/C=C1\NCC2c3ccccc3CCN2C1=O)c1cccc([N+](=O)[O-])c1` (stereo not given), the fold change (FC) was found to be 3.52.

Turning to `Cc1ccc(C(=O)/C=C2\NCC3c4ccccc4CCN3C2=O)cc1` (stereo not given), the fold change (FC) came out at 3.3.

For `COc1ccc2c(c1)CCN1C(=O)/C(=C/C(=O)c3ccccc3)NCC21` (stereo not given), the fold change (FC) amounted to 1.7.

Turning to `COc1cccc2c1CCN1C(=O)/C(=C/C(=O)c3ccccc3)NCC21` (stereo not given), the fold change (FC) amounted to 3.53.
